Reference: patent publication US20260297022A1, “PROCESS FOR THE PREPARATION OF SULFAMOYLBENZOIC ACID DERIVATIVES” (IAMA THERAPEUTICS S.R.L., priority 2023, published 2026)
Values after ≈ are worked out from the molar mass of the structure shown.

Assay: Aqueous kinetic solubility from a solution of 10 mM DMSO in phosphate buffered saline (PBS) at pH 7.4
Assay type: physicochemical
Settings: PBS pH 7.4, 25° C., target concentration 250 μM, 2.5% DMSO, UV quantification at 215 nm, read-out: Kinetic sol. PBS pH 7.4
Protocol: Aqueous kinetic solubility of derivative compounds of the benzoic acid starting from a solution of 10 mM DMSO in phosphate buffered saline (PBS) at pH 7.4
Aliquots of 30 μL of stock solution of the test compound in 10 mM DMSO were incubated in phosphate buffered saline (PBS) at pH 7.4 at 25° C. for 24 hours. After centrifugation, the compound dissolved in the supernatant was quantified by […].
The target concentration was 250 μM with a final concentration of 2.5% DMSO. Aqueous kinetic solubility was determined by UV quantification at 215 nm. The kinetic solubility was then calculated by dividing the peak area of the supernatant by the peak area of the reference and multiplying by the reference concentration (μM) and the dilution factor (1.25).

Structure (SMILES)	solubility kinetic at 24 h [µM]
COCCNc1ccc(C(=O)O)cc1S(=O)(=O)N(C)C [Compound 9]	237 (≈ 71.7 µg/mL)
COCCCCCCNc1ccc(C(=O)O)cc1S(=O)(=O)N(C)C [Compound 11]	>250
CCCCCCNc1ccc(C(=O)O)cc1S(=O)(=O)NC [Compound 4]	247 (≈ 77.7 µg/mL)
O=C(O)c1ccc(NCCCCCCCC(F)(F)F)c(S(=O)(=O)NC2CCOCC2)c1 [Compound 14]	244 (≈ 114 µg/mL)
CN(C)S(=O)(=O)c1cc(C(=O)O)ccc1NCCCC(F)(F)F [Compound 7]	245 (≈ 86.8 µg/mL)
CCCCCCNc1ccc(C(=O)O)cc1S(=O)(=O)N(C)C [Compound 5]	243 (≈ 79.8 µg/mL)
O=C(O)c1ccc(NCCCCCCCC(F)(F)F)c(S(=O)(=O)NC2CCCC2)c1 [Compound 12]	223 (≈ 100 µg/mL)
CCCCCCCCNc1ccc(C(=O)O)cc1S(N)(=O)=O [Compound 3]	>250
CCCCCCNc1ccc(C(=O)O)cc1S(N)(=O)=O [Compound 2]	238 (≈ 71.5 µg/mL)
COCCCCNc1ccc(C(=O)O)cc1S(=O)(=O)N(C)C [Compound 10]	247 (≈ 81.6 µg/mL)
CN(C)S(=O)(=O)c1cc(C(=O)O)ccc1NCCCCCCCC(F)(F)F [Compound 1, 3-(dimethylsulfamoyl)-4-(8,8,8-trifluorooctylamino)benzoic acid]	>250
CNS(=O)(=O)c1cc(C(=O)O)ccc1NCCCCCCCC(F)(F)F [Compound 18]	242 (≈ 95.9 µg/mL)
O=C(O)c1ccc(NCCCCCCCC(F)(F)F)c(S(=O)(=O)N2CCOCC2)c1 [Compound 13]	244 (≈ 110 µg/mL)
CN(C)S(=O)(=O)c1cc(C(=O)O)ccc1NCCC(C)(C)C [Compound 6]	>250
COc1cc(NCCCCCCCC(F)(F)F)c(S(=O)(=O)N(C)C)cc1C(=O)O [Compound 20]	188 (≈ 82.8 µg/mL)
CN(C)S(=O)(=O)c1cc(C(=O)O)c(Cl)cc1NCCCCCCCC(F)(F)F [Compound 16]	241 (≈ 107 µg/mL)
CN(C)S(=O)(=O)c1cc(C(=O)O)ccc1NCCCCCC(F)(F)F [Compound 8]	249 (≈ 95.2 µg/mL)

Same assay, conditions: aqueous buffer, PBS pH 7.4, 25° C., target concentration 250 μM, 2.5% DMSO, UV quantification at 215 nm, read-out: Kinetic sol. PBS pH 7.4

Structure (SMILES)	solubility kinetic at 24 h [µM]
CN(C)S(=O)(=O)c1cc(C(=O)O)ccc1N1CCN(CCCCC(F)(F)F)CC1 [Compound 15]	> 250
C=CCCCCCNc1ccc(C(=O)O)cc1S(=O)(=O)N(C)C [Compound 17]	> 250
NS(=O)(=O)c1cc(C(=O)O)c(O)cc1NCCCCCCCC(F)(F)F [Compound 19]	> 250
